Reference: patent US20070025939A1, “cosmetic compositions containing hydroquinone and various sunscreen agents” (L'Oreal S.A., priority 2005, published 2007)

Legend:
Assay type in all cases: physicochemical
[1] = Discoloration of hydroquinone solutions with stabilizer in various solvents after storage; details: hydroquinone solutions in various solvents (ethanol absolute, 40-B, 40-2, 3A), glass vials, four weeks at 45° C., FIGS. 2A-D
Description: FIGS. 2A-D are photographs of containers of various compositions, each comprising 0.1% benzophenone-4 in 100 ml of various solvents, after storage for four weeks at 45° C. In another set of experiments, solutions containing […] in various solvents (as shown below) were prepared, and then stored in glass vials for four weeks at 45° C.

[2] = Discoloration of compositions associated with oxidation of hydroquinone (general statement); details: compositions containing hydroquinone
[3] = Discoloration of 1% hydroquinone solutions in SDA 40-2 ethanol with 0.1% stabilizer after storage; details: hydroquinone 1% w/w in 200-proof ethanol SDA grade 40-2, 0.1% w/w stabilizer, glass vials, 4 weeks at 45° C., FIG. 1
Description: FIG. 1 is a photograph of containers of various compositions, each comprising 1% hydroquinone, 0.1% of various stabilizers, in a vehicle of SDA grade 40-2 ethanol. Solutions of hydroquinone (1% w/w), in 200-proof ethanol (SDA grade 40-2, which includes brucine sulfate as a denaturant) with 0.1% w/w of various compounds, namely BHT, benzophenone-3, ascorbic acid, Tinogard HS, Tinogard TT, Tinogard Q, benzophenone-4, Tinogard TT DD and ascorbyl glucoside were prepared, and then stored in glass vials for 4 weeks at 45° C. The results of the experiments are illustrated in FIG. 1.

discoloration of the solutions [1]	discoloration of compositions associated with oxidation of hydroquinone [2]	discoloration of the solution [3]	SMILES
substantially no discoloration	inhibit or reduce discoloration		CC1(C)C2CCC1(CS(=O)(=O)O)C(=O)/C2=C/c1ccc(/C=C2/C(=O)C3(CS(=O)(=O)O)CCC2C3(C)C)cc1 [Mexoryl SX, tetraphthalylidene dicamphor sulfonic acid]
substantially no discoloration	inhibit or reduce discoloration	substantially no discoloration	COc1cc(O)c(C(=O)c2ccccc2)cc1S(=O)(=O)O [benzophenone-4, 5-Benzoyl-4-Hydroxy-2-Methoxybenzene Sulfonic Acid]
